Data taken from patent US4757082A, “Method of inhibiting aromatase” (Eli Lilly and Company, priority 1984, dated 1988).

Molecular target: T1, aromatase (Rattus norvegicus, UniProt P22443)
T1 construct: ovarian microsomes are obtained from rats treated with pregnant mares serum gonadotropin; from tissue; host or cells: ovarian microsomes from rats treated with pregnant mares serum gonadotropin
T1 sequence (P22443 1-508): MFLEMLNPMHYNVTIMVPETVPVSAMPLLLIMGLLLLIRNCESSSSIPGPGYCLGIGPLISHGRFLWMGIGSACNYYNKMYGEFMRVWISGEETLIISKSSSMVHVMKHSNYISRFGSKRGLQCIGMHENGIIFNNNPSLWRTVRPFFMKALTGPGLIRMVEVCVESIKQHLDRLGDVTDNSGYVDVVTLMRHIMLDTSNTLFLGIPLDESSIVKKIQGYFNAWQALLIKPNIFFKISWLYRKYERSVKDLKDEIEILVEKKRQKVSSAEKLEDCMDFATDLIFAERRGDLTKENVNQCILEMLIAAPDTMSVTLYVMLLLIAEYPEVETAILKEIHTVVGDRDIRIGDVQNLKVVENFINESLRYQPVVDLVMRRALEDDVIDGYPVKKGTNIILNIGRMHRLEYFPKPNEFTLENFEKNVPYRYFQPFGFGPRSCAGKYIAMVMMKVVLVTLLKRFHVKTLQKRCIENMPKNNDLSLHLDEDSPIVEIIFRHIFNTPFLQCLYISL
Assay: Aromatase inhibition in the rat ovarian microsome assay
Type: biochemical
Settings: rat ovarian microsomes; substrate (androstenedione) concentration 0.1 μM
Experimental: In this test system, ovarian microsomes are obtained from rats treated with pregnant mares serum gonadotropin. Test compounds are added to reaction vials containing 0.1 μM 4-androstene-3,17-dione, 100,000 dpm 1,2[^3 H]-androstenedione, the microsomes and a NADPH generating system. The concentrations of the inhibitors tested ranged between 0.005 and 10 μM.

EC50: 2 µM
SMILES: c1ccc2c(c1)CCc1ccccc1C2n1ccnc1 [1-(10,11-dihydro-5H--dibenzo-[a,d]cyclohepten-5-yl)-1H--imidazole nitrate]
